Assay results: PMC8694169 (Microbiology Spectrum, 2021)
Read-outs that look alike come from different tables or passages of the source. Where a SMILES comes first, the peptide text is derived from it. Where no end group is shown, it is not given here.

What was measured:
[1] = molecular target: T1, HLA-A*24:02 (Homo sapiens, UniProt P04439, D101N/D140Y/D185E/E176V/E190D/F33S/G103R/G107R/I119L/I121M/I306V/K335N/L105A/L180Q/L300P/N151K/N90K/Q86E/Q94H/R106L/R138H/R89G/T104I/T345S/V100E/W191G/Y123F); test: cell-based; assay type: binding
[2] = system: IFN-γ-producing CD8+ T cells; test: Intracellular IFN-γ staining (ICS) of spleen CD8+ T cells after immunization with liposomal peptides; assay type: in vivo, HLA-A*24:02 transgenic mice; conditions: mice immunized with liposomal peptides + CpG; result in words
[3] = system: human lymphocytes; conditions: epitopes of same sequence submitted as HLA-A*24:02-restricted pp1a-specific CTL epitopes; ref Virus Pathogen Database and Analysis Resource; cited from earlier work
[4] = molecular target: T1, HLA-A*24:02; conditions: ref Virus Pathogen Database and Analysis Resource; cited from earlier work
[5] = system: IFN-γ+ CD8+ T cells; test: Comparison of conserved top 4 peptides, ICS after immunization with 4-peptide mixture in liposomes; assay type: in vivo, HLA-A*24:02 transgenic mice; conditions: eight mice immunized with mixture of pp1a-1417, -3104, -3792, -4229 in liposomes with CpG; spleen cells + peptide 5 h; one-way ANOVA; Fig. 5A
[6] = system: CD107a+ CD8+ T cells; test: Comparison of conserved top 4 peptides, CD107a on CD8+ T cells; assay type: in vivo, HLA-A*24:02 transgenic mice; conditions: eight mice immunized with 4-peptide mixture in liposomes with CpG; spleen cells + 50 μM peptide 6 h; one-way ANOVA; Fig. 5B
[7] = […], mean ± SD, triplicate, repeated twice, ND = not detected, read-out: BL50 (half-maximal binding level, peptide concentration that yields 50% relative binding)

## TFHLDGEVI [pp1a-1543]
[1]; [7]
  EC50: 100 ± 6.8 µM

## KFLTENLLL [pp1a-1247]
[1]; [7]
  EC50: 33.4 ± 1.9 µM

## YYHTTDPSF [pp1a-1634]
[1]; [7]
  EC50: 0.04 µM

## AYILFTRFF [pp1a-2330]
[1]; [7]
  EC50: 0.8 ± 0.1 µM
[2]
  detection of IFN-γ-producing CD8+ T cells in immunized mice: significant numbers
[3]
  result in T cell assays using human lymphocytes: positive

## AFYILPSII [pp1a-1352]
[1]; [7]
  EC50: 64.4 ± 9.2 µM

## MFDAYVNTF [pp1a-2590]
[1]; [7]
  EC50: 7.7 ± 0.6 µM
[2]
  detection of IFN-γ-producing CD8+ T cells in immunized mice: significant numbers

## MFTPLIQPI [pp1a-3030]
[1]; [7]
  EC50: 251 ± 88.7 µM

## AFLPFAMGI [pp1a-3610]
[1]; [7]
  EC50: 183 ± 8.2 µM

## LYDKLVSSF [pp1a-1182]
[1]; [7]
  EC50: 1 ± 0.3 µM
[2]
  detection of IFN-γ-producing CD8+ T cells in immunized mice: significant numbers
[3]
  result in T cell assays using human lymphocytes: positive

## FYWFFSNYL [pp1a-3153]
[1]; [7]
  EC50: 3.9 ± 1.3 µM
[2]
  detection of IFN-γ-producing CD8+ T cells in immunized mice: significant numbers

## SYLFQHANL [pp1a-1733]
[1]; [7]
  EC50: 3 ± 0.4 µM

## SYSGQSTQL [pp1a-1515]
[1]; [7]
  EC50: 45.8 ± 10.5 µM

## AFVETVKGL [pp1a-486]
[1]; [7]
  EC50: 278 ± 49.8 µM

## FFSYFAVHF [pp1a-2350]
[1]; [7]
  EC50: 1.4 ± 0.1 µM
[2]
  detection of IFN-γ-producing CD8+ T cells in immunized mice: significant numbers

## NYLKRRVVF [pp1a-3159]
[1]; [7]
  EC50: 114 ± 5.3 µM

## PFWITIAYI [pp1a-3137]
[1]; [7]
  EC50: 103 ± 8.4 µM

## NFSKLINII [pp1a-2222]
[1]; [7]
  EC50: 181 ± 32.5 µM

## DYLVSTQEF [pp1a-3812]
[1]; SD
  EC50: 0.9 ± 0.1 µM

## TFNGECPNF [pp1a-265]
[1]; [7]
  EC50: 1.7 ± 0.4 µM
[2]
  detection of IFN-γ-producing CD8+ T cells in immunized mice: significant numbers
[3]
  result in T cell assays using human lymphocytes: positive

## DYQGKPLEF [pp1a-954]
[1]; [7]
  EC50: 126 ± 23.9 µM

## TFCAGSTFI [pp1a-2457]
[1]; [7]
  EC50: 127 ± 20.2 µM

## MFLARGIVF [pp1a-3752]
[1]; [7]
  EC50: 24.2 ± 1.5 µM
[2]
  detection of IFN-γ-producing CD8+ T cells in immunized mice: significant numbers

## AFEKMVSLL [pp1a-3907]
[1]; [7]
  EC50: 114 ± 3.1 µM

## FYLTNDVSF [pp1a-3114]
[1]; [7]
  EC50: 0.01 µM
[2]
  detection of IFN-γ-producing CD8+ T cells in immunized mice: significant numbers
[3]
  result in T cell assays using human lymphocytes: negative
[4]
  result in the binding assay: positive

## GYKSVNITF [pp1a-835]
[1]; [7]
  EC50: 0.1 µM
[2]
  detection of IFN-γ-producing CD8+ T cells in immunized mice: significant numbers

## DYGARFYFY [pp1a-1417]
[1]; [7]
  EC50: 16.1 ± 0.8 µM
[2]
  detection of IFN-γ-producing CD8+ T cells in immunized mice: significant numbers

## QYGRSGETL [pp1a-96]
[1]; [7]
  EC50: 124 ± 10.9 µM

## YYTSNPTTF [pp1a-1536]
[1]; [7]
  EC50: 0.05 µM

## MFVKHKHAF [pp1a-3627]
[1]; [7]
  EC50: 241 ± 33.6 µM

## WFLLLSVCL [pp1a-2232]
[1]; [7]
  EC50: 279 ± 12.6 µM

## AFGLVAEWF [pp1a-2320]
[1]; [7]
  EC50: 135 ± 39.1 µM

## LFLMSFTVL [pp1a-3084]
[1]; [7]
  EC50: 100 ± 7.6 µM

## NFNQHEVLL [pp1a-1137]
[1]; [7]
  EC50: 55.3 ± 2 µM

## NFTIKGSFL [pp1a-3396]
[1]; [7]
  EC50: 134 ± 7.6 µM

## YYKKDNSYF [pp1a-1899]
[1]; [7]
  EC50: 0.3 µM
[2]
  detection of IFN-γ-producing CD8+ T cells in immunized mice: significant numbers
[3]
  result in T cell assays using human lymphocytes: positive

## KFVCDNIKF [pp1a-1929]
[1]; [7]
  EC50: 61.7 ± 1.6 µM

## LFVAAIFYL [pp1a-2781]
[1]; [7]
  EC50: 183 ± 8.2 µM

## GYVTHGLNL [pp1a-1451]
[1]; [7]
  EC50: 109 ± 8.9 µM

## YFTEQPIDL [pp1a-1906]
[1]; [7]
  EC50: 113 ± 9.4 µM

## MYASAVVLL [pp1a-3684]
[1]; [7]
  EC50: 0.4 ± 0.1 µM
[2]
  detection of IFN-γ-producing CD8+ T cells in immunized mice: significant numbers
[3]
  result in T cell assays using human lymphocytes: negative
[4]
  result in the binding assay: positive

## DYKHYTPSF [pp1a-1971]
[1]; [7]
  EC50: 58.4 ± 11.7 µM

## FYENAFLPF [pp1a-3606]
[1]; [7]
  EC50: 0.02 ± 0.01 µM
[2]
  detection of IFN-γ-producing CD8+ T cells in immunized mice: significant numbers

## IYLYLTFYL [pp1a-3108]
[1]; [7]
  EC50: 100 ± 13.8 µM

## SYGADLKSF [pp1a-135]
[1]; [7]
  EC50: 104 ± 17.7 µM

## TFDNLKTLL [pp1a-1552]
[1]; [7]
  EC50: 96.1 ± 1.6 µM

## VFLFVAAIF [pp1a-2779]
[1]; [7]
  EC50: 8.6 ± 0.4 µM
[2]
  detection of IFN-γ-producing CD8+ T cells in immunized mice: significant numbers

## TFFKLVNKF [pp1a-677]
[1]; [7]
  EC50: 55.9 ± 3.3 µM

## VYSVIYLYL [pp1a-3104]
[1]; [7]
  EC50: 0.5 µM
[2]
  detection of IFN-γ-producing CD8+ T cells in immunized mice: significant numbers
[5]
  dominance in induction of peptide-specific IFN-γ+ CD8+ T cells among conserved top 4 peptides: far superior to all other peptides
[6]
  dominance in CD107a induction of CD8+ T cells among conserved top 4 peptides: statistically predominant over pp1a-1417 and -4229
[3]
  result in T cell assays using human lymphocytes: negative
[4]
  result in the binding assay: positive

## KFKEGVEFL [pp1a-634]
[1]; [7]
  EC50: 79.6 ± 6.6 µM
[2]
  detection of IFN-γ-producing CD8+ T cells in immunized mice: significant numbers

## LYCIDGALL [pp1a-1845]
[1]; [7]
  EC50: 38.5 ± 8.2 µM
[2]
  detection of IFN-γ-producing CD8+ T cells in immunized mice: significant numbers

## KYLYFIKGL [pp1a-4226]
[1]; SD
  EC50: 109 ± 1.3 µM

## YYRSLPGVF [pp1a-3010]
[1]; [7]
  EC50: 122 ± 18.8 µM

## FYVLGLAAI [pp1a-2338]
[1]; [7]
  EC50: 0.7 ± 0.1 µM
[2]
  detection of IFN-γ-producing CD8+ T cells in immunized mice: significant numbers

## DFVKATCEF [pp1a-335]
[1]; [7]
  EC50: 127 ± 3.8 µM

## IFGTVYEKL [pp1a-616]
[1]; [7]
  EC50: 122 ± 18 µM

## CC(C)C[C@H](NC(=O)[C@H](CC(C)C)NC(=O)[C@H](CS)NC(=O)[C@H](Cc1ccccc1)NC(=O)[C@H](CC(C)C)NC(=O)CNC(=O)[C@H](Cc1ccccc1)NC(=O)[C@H](Cc1ccc(O)cc1)NC(=O)[C@@H](N)CS)C(=O)O [pp1a-3792] (H-CYFGLFCLL-OH; N-terminus and C-terminus assumed)
[2]
  detection of IFN-γ-producing CD8+ T cells in immunized mice: significant numbers

## YFIKGLNNL [pp1a-4229]
[1]; [7]
  EC50: 32.1 ± 1.9 µM
[2]
  detection of IFN-γ-producing CD8+ T cells in immunized mice: significant numbers

## VYEKLKPVL [pp1a-620]
[1]; [7]
  EC50: 264 ± 21.4 µM

## PYCYDTNVL [pp1a-2931]
[1]; [7]
  EC50: 6.8 ± 1 µM

## LYIDINGNL [pp1a-1255]
[1]; [7]
  EC50: 40.4 ± 8.6 µM
[2]
  detection of IFN-γ-producing CD8+ T cells in immunized mice: significant numbers

## QYELKHGTF [pp1a-1813]
[1]; [7]
  EC50: 141 ± 8 µM
